Experimental data reported in patent publication US11976058B2, “Aromatic derivatives, preparation methods, and medical uses thereof” (Bioardis LLC, priority 2019, dated 2024).

Molecular target: T1, human FGFR4 (Homo sapiens, UniProt P22455)
T1 construct: human FGFR4 cytoplasmic domain (460-802); GST (N); purchased Carna Biosciences 08-136
Assay: FGFR4 enzymatic assay (HTRF KinEASE-TK)
Format: biochemical
Conditions: wild-type human FGFR4 cytoplasmic domain (460-802), GST-tag; 60 min preincubation at 25° C.; ATP 200 μM; read-out: Potency (IC50), FGFR4 enzymatic assay
Description: The ability of compounds to inhibit human FGFR4 tyrosine kinase activities was determined using a commercially available HTRF® KinEASE™-TK kit (CISBIO, Cat #62TK0PEC) according to the manufacturer's protocol. Wild-type human FGFR4 cytoplasmic domain (460-802) with N-terminal GST-tag was purchased from Carna Biosciences (Carna, Cat #08-136) and used in the kinase enzymatic assay. This assay, run in a 384-well plate format, is a generic method for measuring tyrosine kinase activities using one substrate and a universal detection system. It involves two steps: (1) Enzymatic step: the biotin labeled TK Substrate is incubated with the kinase and then ATP is added to start the enzymatic reaction; during this step, FGFR4 will phosphorylate the TK Substrate-biotin. (2) Detection step: The TK-Antibody labeled with Eu^3+-Cryptate can recognize the phosphorylated TK Substrate-biotin. When the streptavidin-XL665 conjugate binds the biotin, a FRET signal will be detected. Briefly, human FGFR4 (0.25 μg/ml) in the enzymatic buffer solutions (250 mM HEPES, pH7.0, 0.1% NaN3, 0.05% BSA, 0.5 mM Orthovanadate) were mixed with various concentrations of the test compound (dissolved in 100% DMSO). These solutions were incubated for 60 min at 25° C., and subsequently a mixture of substrate peptide and ATP was added with the final peptide and ATP concentrations at 0.3 μM and 200 μM respectively. The final reaction mixture of enzyme-substrate-ATP-compound was incubated for 40 min at 37° C. Meanwhile the detection mixture containing the TK-antibody and Streptavidin-XL665 diluted in the detection buffer (50 mM HEPES, pH7.0, with additives) was prepared, and added to the reaction mixture at final concentrations of 25 nM and 18.5 nM respectively. After incubation for 60 min at 25° C., the FRET signal of the final solution was measured at 665 nm and 612 nm emissions on a TECAN Spark 10M instrument (TECAN). The percent (%) inhibition at each concentration of a compound was calculated relative to the FRET signal in the Max and Min control wells contained within each assay plate. The Max control wells contained enzyme and substrate as 0% inhibition, and the Min control wells only contained substrate without enzyme as 100% inhibition. The concentrations and percent inhibition values for a test compound are plotted and the concentration of the compound required to achieve 50% inhibition (IC50) was determined with a four-parameter logistic dose response equation. Dose-response curves were generated using Prism (GraphPad Software, La Jolla, CA, US) to calculate IC50 values for each compound tested.

T1 sequence (P22455 460-802): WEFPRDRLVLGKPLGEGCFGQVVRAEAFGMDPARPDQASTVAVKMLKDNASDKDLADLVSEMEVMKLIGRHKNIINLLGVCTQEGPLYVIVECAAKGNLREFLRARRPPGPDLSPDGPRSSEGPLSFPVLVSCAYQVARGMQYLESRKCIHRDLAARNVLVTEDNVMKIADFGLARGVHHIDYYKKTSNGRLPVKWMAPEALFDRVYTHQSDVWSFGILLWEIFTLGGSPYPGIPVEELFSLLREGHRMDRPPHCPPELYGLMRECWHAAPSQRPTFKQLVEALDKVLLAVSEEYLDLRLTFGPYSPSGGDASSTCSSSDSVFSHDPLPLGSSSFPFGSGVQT

Row | IC50 | SMILES
1 | > 0.1 µM | C=CC(=O)N[C@@H]1COC[C@@H]1c1n[nH]c2c1CC[C@H](c1cc(OC)cc(OC)c1F)C2 [Compound S13-P4, N-((3S,4S)-4-((S)-6-(2-fluoro-3,5-dimethoxyphenyl)-4,5,6,7-tetrahydro-1H-indazol-3-yl)tetrahydrofuran-3-yl)acrylamide]
2 | > 0.1 µM | C=CC(=O)Nc1cnn(CC(F)(F)F)c1-c1n[nH]c2c1CCC(c1c(F)c(OC)cc(OC)c1F)C2 (single isomer, unassigned) [Compound S18-P1, N-(5-(6-(2,6-difluoro-3,5-dimethoxyphenyl)-4,5,6,7-tetrahydro-1H-indazol-3-yl)-1-(2,2,2-trifluoroethyl)-1H-pyrazol-4-yl)acrylamide]
3 | > 0.1 µM | C=CC(=O)Nc1cnn(CC)c1-c1n[nH]c2c1CC[C@@H](c1cc(OC)cc(OC)c1F)C2 [Compound S14-P3, (R)—N-(1-ethyl-5-(6-(2-fluoro-3,5-dimethoxyphenyl)-4,5,6,7-tetrahydro-1H-indazol-3-yl)-1H-pyrazol-4-yl) acrylamide]
4 | > 0.1 µM | C=C(C)C(=O)Nc1cnn(C)c1-c1n[nH]c2c1CCC(c1c(Cl)c(OC)cc(OC)c1Cl)C2 (single isomer, unassigned) [Compound S2-P1, N-(5-(6-(2,6-dichloro-3,5-Dimethoxyphenyl)-4,5,6,7-tetrahydro-1H-indazol-3-yl)-1-methyl-1H-pyrazol-4-yl) Methacrylamide]
5 | > 0.1 µM | COc1cc(OC)c(F)c([C@H]2CCc3c(-c4c(NC(=O)C5CO5)cnn4C)n[nH]c3C2)c1F (stereo partly drawn) [Compound S24, N-(5-((S)-6-(2,6-difluoro-3,5-dimethoxyphenyl)-4,5,6,7-tetrahydro-1H-indazol-3-yl)-1-methyl-1H-pyrazol-4-yl)oxirane-2-carboxamide]
6 | > 0.1 µM | CCC(=O)Nc1cnn(C)c1-c1n[nH]c2c1CCC(c1c(F)c(OC)cc(OC)c1F)C2 (single isomer, unassigned) [Compound S20-P2, N-(5-(6-(2,6-difluoro-3,5-dimethoxyphenyl)-4,5,6,7-tetrahydro-1H-indazol-3-yl)-1-methyl-1H-pyrazol-4-yl)propionamide]
7 | > 0.1 µM | C=CC(=O)Nc1cnn(CC(F)(F)F)c1-c1n[nH]c2c1CCC(c1c(F)c(OC)cc(OC)c1F)C2 (single isomer, unassigned) [Compound S18-P2, N-(5-(6-(2,6-difluoro-3,5-dimethoxyphenyl)-4,5,6,7-tetrahydro-1H-indazol-3-yl)-1-(2,2,2-trifluoroethyl)-1H-pyrazol-4-yl)acrylamide]
8 | > 0.1 µM | COc1cc(OC)c(F)c(C2CCc3c(-c4c(NC(C)=O)cnn4C)n[nH]c3C2)c1F (single isomer, unassigned) [Compound S19-P1, N-(5-(6-(2,6-difluoro-3,5-dimethoxyphenyl)-4,5,6,7-tetrahydro-1H-indazol-3-yl)-1-methyl-1H-pyrazol-4-yl)acetamide]
9 | > 0.1 µM | COc1cc(OC)c(F)c(C2CCc3c(-c4c(NC(C)=O)cnn4C)n[nH]c3C2)c1F (single isomer, unassigned) [Compound S19-P2, N-(5-(6-(2,6-difluoro-3,5-dimethoxyphenyl)-4,5,6,7-tetrahydro-1H-indazol-3-yl)-1-methyl-1H-pyrazol-4-yl)acetamide]
10 | > 0.1 µM | C=CC(=O)N[C@H]1COC[C@H]1c1n[nH]c2c1CC[C@@H](c1c(Cl)c(OC)cc(OC)c1Cl)C2 [Compound S10-P1, N-((3R,4R)-4-((R)-6-(2,6-dichloro-3,5-dimethoxyphenyl)-4,5,6,7-tetrahydro-1H-indazol-3-yl)tetrahydrofuran-3-yl)acrylamide]
11 | > 0.1 µM | C=CC(=O)NC1CCOCC1c1n[nH]c2c1CC[C@H](c1c(Cl)c(OC)cc(OC)c1Cl)C2 (single isomer, unassigned) [Compound S7-P1]
12 | > 0.1 µM | C=CC(=O)N[C@@H]1COC[C@@H]1c1n[nH]c2c1CC[C@H](c1c(Cl)c(OC)cc(OC)c1Cl)C2 [Compound S10-P3, N-((3S,4S)-4-((S)-6-(2,6-dichloro-3,5-dimethoxyphenyl)-4,5,6,7-tetrahydro-1H-indazol-3-yl)tetrahydrofuran-3-yl)acrylamide]
13 | > 0.1 µM | COC(=O)/C=C/C(=O)Nc1cnn(C)c1-c1n[nH]c2c1CC[C@H](c1c(F)c(OC)cc(OC)c1F)C2 [Compound S22, methyl (S,E)-4-((5-(6-(2,6-difluoro-3,5-dimethoxyphenyl)-4,5,6,7-tetrahydro-1H-indazol-3-yl)-1-methyl-1H-pyrazol-4-yl)amino)-4-oxobut-2-enoate]
14 | > 0.1 µM | C=C(F)C(=O)Nc1cnn(C)c1-c1n[nH]c2c1CCC(c1c(F)c(OC)cc(OC)c1F)C2 (single isomer, unassigned) [Compound S21-P1, N-(5-(6-(2,6-difluoro-3,5-dimethoxyphenyl)-4,5,6,7-tetrahydro-1H-indazol-3-yl)-1-methyl-1H-pyrazol-4-yl)-2-fluoroacrylamide]
15 | > 0.1 µM | COc1cc(OC)c(F)c([C@H]2CCc3c(-c4c(NC(=O)/C=C/C(=O)OC(C)C)cnn4C)n[nH]c3C2)c1F [Compound S23, isopropyl (S,E)-4-((5-(6-(2,6-difluoro-3,5-dimethoxyphenyl)-4,5,6,7-tetrahydro-1H-indazol-3-yl)-1-methyl-1H-pyrazol-4-yl)amino)-4-oxobut-2-enoate]
16 | > 0.1 µM | C=C(C)C(=O)Nc1cnn(C)c1-c1n[nH]c2c1CCC(c1c(Cl)c(OC)cc(OC)c1Cl)C2 (single isomer, unassigned) [Compound S2-P2, N-(5-(6-(2,6-dichloro-3,5-Dimethoxyphenyl)-4,5,6,7-tetrahydro-1H-indazol-3-yl)-1-methyl-1H-pyrazol-4-yl) Methacrylamide]
17 | > 0.1 µM | C=CC(=O)N[C@H]1COC[C@H]1c1n[nH]c2c1CC[C@H](c1c(F)c(OC)cc(OC)c1F)C2 [Compound S13-P1, N-((3R,4R)-4-((S)-6-(2,6-difluoro-3,5-dimethoxyphenyl)-4,5,6,7-tetrahydro-1H-indazol-3-yl)tetrahydrofuran-3-yl)acrylamide]
18 | > 0.1 µM | C=CC(=O)N[C@@H]1COC[C@@H]1c1n[nH]c2c1CC[C@@H](c1c(Cl)c(OC)cc(OC)c1Cl)C2 [Compound S10-P2, N-((3S,4S)-4-((R)-6-(2,6-dichloro-3,5-dimethoxyphenyl)-4,5,6,7-tetrahydro-1H-indazol-3-yl)tetrahydrofuran-3-yl)acrylamide]
19 | > 0.1 µM | CCC(=O)Nc1cnn(C)c1-c1n[nH]c2c1CCC(c1c(F)c(OC)cc(OC)c1F)C2 (single isomer, unassigned) [Compound S20-P1, N-(5-(6-(2,6-difluoro-3,5-dimethoxyphenyl)-4,5,6,7-tetrahydro-1H-indazol-3-yl)-1-methyl-1H-pyrazol-4-yl)propionamide]
20 | > 0.1 µM | C=CC(=O)N[C@@H]1COC[C@@H]1c1n[nH]c2c1CC[C@H](c1c(F)c(OC)cc(OC)c1F)C2 [Compound S13-P2, N-((3S,4S)-4-((S)-6-(2,6-difluoro-3,5-dimethoxyphenyl)-4,5,6,7-tetrahydro-1H-indazol-3-yl)tetrahydrofuran-3-yl)acrylamide]
21 | > 0.1 µM | C=C(F)C(=O)Nc1cnn(C)c1-c1n[nH]c2c1CCC(c1c(F)c(OC)cc(OC)c1F)C2 (single isomer, unassigned) [Compound S21-P2, N-(5-(6-(2,6-difluoro-3,5-dimethoxyphenyl)-4,5,6,7-tetrahydro-1H-indazol-3-yl)-1-methyl-1H-pyrazol-4-yl)-2-fluoroacrylamide]
22 | > 0.1 µM | C=CC(=O)N[C@H]1COC[C@H]1c1n[nH]c2c1CC[C@H](c1cc(OC)cc(OC)c1F)C2 [Compound S13-P3, N-((3R,4R)-4-((S)-6-(2-fluoro-3,5-dimethoxyphenyl)-4,5,6,7-tetrahydro-1H-indazol-3-yl)tetrahydrofuran-3-yl)acrylamide]
23 | > 0.1 µM | C=CC(=O)N[C@H]1COC[C@H]1c1n[nH]c2c1CC[C@H](c1c(Cl)c(OC)cc(OC)c1Cl)C2 [Compound S10-P4, N-((3R,4R)-4-((S)-6-(2,6-dichloro-3,5-dimethoxyphenyl)-4,5,6,7-tetrahydro-1H-indazol-3-yl)tetrahydrofuran-3-yl)acrylamide]
24 | > 0.1 µM | C=CC(=O)NC1CCOCC1c1n[nH]c2c1CC[C@H](c1c(Cl)c(OC)cc(OC)c1Cl)C2 (single isomer, unassigned) [Compound S7-P2]
